Laboratory results: patent publication US11866450B2, “Modulators of Cystic Fibrosis Transmembrane Conductance regulator, pharmaceutical compositions, methods of treatment, and process for making the modulators” (priority 2018, dated 2024)
Where two headings read alike, the source gives them in different places.

Key:
[1] = snar bond
[2] = molecular target: CFTR-mediated chloride transport (Homo sapiens, UniProt P13569); format: cell-based; conditions: enteroid cells incubated with test compound 18-24 hours, acute 10 μM forskolin and 300 nM Compound III; for Max. Activity: % of chloride transport with 3 μM Compound A, 3 μM Compound II and 300 nM acute Compound III triple combination control
Summary of the method: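 Membrane-potential fluorescence AUC over 15 min quantified CFTR chloride transport after acute forskolin (10 μM), IBMX (100 μM) and Compound III (300 nM) in chloride-free buffer. Human enteroid cells were pretreated with compound for 18–24 h; % Activity is relative to 3 μM Compound A + 3 μM Compound II + 300 nM Compound III.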

Sequence of CFTR-mediated chloride transport (P13569 whole entry, looked up): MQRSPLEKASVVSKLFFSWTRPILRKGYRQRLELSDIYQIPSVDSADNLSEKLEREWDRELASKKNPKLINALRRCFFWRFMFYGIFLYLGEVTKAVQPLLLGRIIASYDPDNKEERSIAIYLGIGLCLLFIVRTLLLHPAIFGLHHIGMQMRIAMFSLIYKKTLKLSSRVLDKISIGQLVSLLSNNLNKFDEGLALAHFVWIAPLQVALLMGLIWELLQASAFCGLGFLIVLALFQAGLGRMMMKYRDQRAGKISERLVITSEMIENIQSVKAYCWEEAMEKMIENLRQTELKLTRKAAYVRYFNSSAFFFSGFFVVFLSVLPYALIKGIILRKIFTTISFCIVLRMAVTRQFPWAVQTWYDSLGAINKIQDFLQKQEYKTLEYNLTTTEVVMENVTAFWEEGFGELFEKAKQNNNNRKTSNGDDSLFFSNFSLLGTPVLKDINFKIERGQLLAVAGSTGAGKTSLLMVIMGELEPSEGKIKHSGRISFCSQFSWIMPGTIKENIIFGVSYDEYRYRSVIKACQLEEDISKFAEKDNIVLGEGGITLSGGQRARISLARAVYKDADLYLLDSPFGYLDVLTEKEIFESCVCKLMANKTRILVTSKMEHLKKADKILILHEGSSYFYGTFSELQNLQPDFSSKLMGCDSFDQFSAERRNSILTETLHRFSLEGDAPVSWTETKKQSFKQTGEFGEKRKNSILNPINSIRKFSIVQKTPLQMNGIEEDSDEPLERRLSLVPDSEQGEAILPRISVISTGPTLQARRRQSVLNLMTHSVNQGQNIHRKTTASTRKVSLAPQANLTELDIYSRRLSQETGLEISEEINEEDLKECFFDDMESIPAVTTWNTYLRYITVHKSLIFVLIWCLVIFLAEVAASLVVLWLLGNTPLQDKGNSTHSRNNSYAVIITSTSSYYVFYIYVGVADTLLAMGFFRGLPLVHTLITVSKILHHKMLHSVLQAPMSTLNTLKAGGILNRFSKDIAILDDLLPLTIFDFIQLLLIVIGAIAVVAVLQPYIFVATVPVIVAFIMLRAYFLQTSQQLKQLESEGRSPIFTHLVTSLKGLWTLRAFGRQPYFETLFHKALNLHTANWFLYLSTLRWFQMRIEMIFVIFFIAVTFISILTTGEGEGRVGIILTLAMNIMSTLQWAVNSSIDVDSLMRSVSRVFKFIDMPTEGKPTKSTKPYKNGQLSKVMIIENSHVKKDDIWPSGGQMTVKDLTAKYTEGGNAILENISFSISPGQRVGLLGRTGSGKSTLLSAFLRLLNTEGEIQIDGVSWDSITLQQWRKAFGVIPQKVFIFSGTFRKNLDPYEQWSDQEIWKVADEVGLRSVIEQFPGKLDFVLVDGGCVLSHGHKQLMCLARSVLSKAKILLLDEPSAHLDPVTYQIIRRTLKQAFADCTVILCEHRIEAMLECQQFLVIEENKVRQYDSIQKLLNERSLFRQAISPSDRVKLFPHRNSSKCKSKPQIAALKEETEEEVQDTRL

SMILES | EC50 [2] | Max. Activity [2] | also measured
CC1(C)CC2CN1c1nc(-n3ccc(OCCC4(C(F)(F)F)CC4)n3)ccc1C(=O)NS(=O)(=O)c1ccnn1CCO2 (stereo not drawn) [Compound 152, 21,21-dimethyl-4-(3-{2-[1-(trifluoromethyl)cyclopropyl]ethoxy}-1H-pyrazol-1-yl)-18-oxa-10λ^6-thia-1,3,9,14,15-pentaazatetracyclo[17.2.1.02,7.011,15]docosa-2(7),3,5,11,13-pentaene-8,10,10-trione] | > 3000 nM | + (+ is <30%) | ring closure, yield after HPLC ([1]; from CC(C)(C)OC(=O)N1CC(OCCn2ccc(S(=O)(=O)NC(=O)c3ccc(-n4ccc(OCCC5(C(F)(F)F)CC5)n4)nc3Cl)n2)CC1(C)C, 13-membered ring, K2CO3/CsF/3A MS, DMSO, 62.0 mM, 140.0 °C, 2 steps): 34%
CC(C)COc1cc(F)cc(-c2ccc3c(n2)N2C[C@@H](CCCNc4cccc(n4)S(=O)(=O)NC3=O)CC2(C)C)c1 [Compound 224, (14S)-8-[3-Fluoro-5-(2-methylpropoxy)phenyl]-12,12-dimethyl-2λ^6-thia-3,9,11,18,23-pentaazatetracyclo[17.3.1.111,14.05,10]tetracosa-1(22),5,7,9,19(23),20-hexaene-2,2,4-trione] | < 1000 nM | +++ (+++ is >60%) | ring closure, yield after HPLC ([1]; from CC(C)COc1cc(F)cc(-c2ccc(C(=O)NS(=O)(=O)c3cccc(NCCC[C@@H]4CN(C(=O)OC(C)(C)C)C(C)(C)C4)n3)c(Cl)n2)c1, 15-membered ring, K2CO3/CsF/3A MS, DMSO, 30.6 mM, 150.0 °C, 2 steps): 14%
CC1(C)CC2CCCNc3cccc(n3)S(=O)(=O)NC(=O)c3ccc(-n4ccc(O)n4)nc3N1C2 (stereo not drawn) [Compound 38, 8-(3-hydroxy-1H-pyrazol-1-yl)-12,12-dimethyl-2λ^6-thia-3,9,11,18,23-pentaazatetracyclo[17.3.1.111,14.05,10]tetracosa-1(22),5,7,9,19(23),20-hexaene-2,2,4-trione] | > 3000 nM | ++ (++ is 30-60%) | ring closure, yield after HPLC ([1]; from CC1(C)CC(CCCNc2cccc(S(=O)(=O)NC(=O)c3ccc(-n4ccc(O)n4)nc3Cl)n2)CN1, 15-membered ring, CsF/K2CO3/3A MS, DMSO, 39.3 mM, 140.0 °C): 17%
CC1(C)C[C@@H]2CCCNc3cccc(n3)S(=O)(=O)NC(=O)c3ccc(C4=CCCCO4)nc3N1C2 [Compound 303, (14S)-8-(3,4-dihydro-2H-pyran-6-yl)-12,12-dimethyl-2λ^6-thia-3,9,11,18,23-pentaazatetracyclo[17.3.1.111,14.05,10]tetracosa-1(22),5,7,9,19(23),20-hexaene-2,2,4-trione] | < 1000 nM | +++ (+++ is >60%) | ring closure, yield after HPLC ([1]; from CC1(C)C[C@H](CCCNc2cccc(S(=O)(=O)NC(=O)c3ccc(C4=CCCCO4)nc3Cl)n2)CN1, 15-membered ring, K2CO3, NMP, 25.7 mM, 180.0 °C): 3%
CC1(C)CCC2CCCNc3cccc(n3)S(=O)(=O)NC(=O)c3ccc(-n4ccc(OCCC(C5CC5)C5CC5)n4)nc3N21 (stereo not drawn) [Compound 131, 8-[3-(3,3-Dicyclopropylpropoxy)-1H-pyrazol-1-yl]-12,12-dimethyl-2λ^6-thia-3,9,11,19,24-pentaazatetracyclo[18.3.1.05,10.011,15]tetracosa-1(23),5(10),6,8,20(24),21-hexaene-2,2,4-trione] | < 1000 nM | ++ (++ is 30-60%) | ring closure, yield after HPLC ([1]; from CC(C)(C)OC(=O)N1C(CCCNc2cccc(S(=O)(=O)NC(=O)c3ccc(-n4ccc(OCCC(C5CC5)C5CC5)n4)nc3Cl)n2)CCC1(C)C, 14-membered ring, K2CO3/CsF/3A MS, DMSO, 94.1 mM, 150.0 °C, 2 steps): 39%
CC1(C)CC2CN1c1nc(-n3ccc(OCCCC4(C(F)(F)F)CC4)n3)ccc1C(=O)NS(=O)(=O)c1cccc(n1)NCCO2 (stereo not drawn) [Compound 157] | < 1000 nM | +++ (+++ is >60%) | ring closure, yield after HPLC ([1]; from CC1(C)CC(OCCNc2cccc(S(=O)(=O)NC(=O)c3ccc(-n4ccc(OCCCC5(C(F)(F)F)CC5)n4)nc3Cl)n2)CN1, 15-membered ring, K2CO3/CsF/4A MS, DMSO, 105.0 mM, 150.0 °C): 34%
CC1(C)C[C@@H]2CCCNc3cccc(n3)S(=O)(=O)NC(=O)c3ccc(-n4cccc(OCCC5(C(F)(F)F)CC5)c4=O)nc3N1C2 [Compound 268, (14S)-12,12-Dimethyl-8-(2-oxo-3-{2-[1-(trifluoromethyl)cyclopropyl]ethoxy}-1,2-dihydropyridin-1-yl)-2λ^6-thia-3,9,11,18,23-pentaazatetracyclo[17.3.1.111,14.05,10]tetracosa-1(23),5(10),6,8,19,21-hexaene-2,2,4-trione] | > 3000 nM | ++ (++ is 30-60%) | ring closure, yield after HPLC ([1]; from CC(C)(C)OC(=O)N1C[C@@H](CCCNc2cccc(S(=O)(=O)NC(=O)c3ccc(-n4cccc(OCCC5(C(F)(F)F)CC5)c4=O)nc3Cl)n2)CC1(C)C, 15-membered ring, K2CO3/CsF/3A MS, DMSO, 12.0 mM, 150.0 °C, 2 steps): 49%
CC1(C)CC2CN1c1nc(-n3ccc(OCCC(C4CC4)C4CC4)n3)ccc1C(=O)NS(=O)(=O)c1cccc(n1)NCCO2 (racemic) [Compound 156, 8-[3-(3,3-Dicyclopropylpropoxy)-1H-pyrazol-1-yl]-12,12-dimethyl-15-oxa-2λ^6-thia-3,9,11,18,23-pentaazatetracyclo[17.3.1.111,14.05,10]tetracosa-1(23),5,7,9,19,21-hexaene-2,2,4-trione] | < 1000 nM | +++ (+++ is >60%) | ring closure, yield after HPLC ([1]; from CC1(C)CC(OCCNc2cccc(S(=O)(=O)NC(=O)c3ccc(-n4ccc(OCCC(C5CC5)C5CC5)n4)nc3Cl)n2)CN1, 15-membered ring, K2CO3/CsF/3A MS, DMSO, 121.6 mM, 150.0 °C): 30%
CC1(C)C[C@H]2CCCNc3cccc(n3)S(=O)(=O)NC(=O)c3ccc(-n4ccc(OCCCC5(C(F)(F)F)CC5)n4)nc3N1C2 [Compound 190, (14R)-12,12-dimethyl-8-(3-{3-[1-(trifluoromethyl)cyclopropyl]propoxy}-1H-pyrazol-1-yl)-2λ^6-thia-3,9,11,18,23-pentaazatetracyclo[17.3.1.111,14.05,10]tetracosa-1(23),5,7,9,19,21-hexaene-2,2,4-trione] | < 1000 nM | ++ (++ is 30-60%) | ring closure, yield after HPLC ([1]; from CC1(C)CC(CCCNc2cccc(S(=O)(=O)NC(=O)c3ccc(-n4ccc(OCCCC5(C(F)(F)F)CC5)n4)nc3Cl)n2)CN1, 15-membered ring, K2CO3/CsF/4A MS, DMSO, 102.3 mM, 150.0 °C, 2 steps): 49%
CC1(C)CC2CCCn3ccc(n3)S(=O)(=O)NC(=O)c3ccc(-n4ccc(OCCCC5(C(F)(F)F)CC5)n4)nc3N1C2 (racemic) [Compound 155, 20,20-Dimethyl-4-(3-{3-[1-(trifluoromethyl)cyclopropyl]propoxy}-1H-pyrazol-1-yl)-10λ^6-thia-1,3,9,14,22-pentaazatetracyclo[16.2.1.111,14.02,7]docosa-2(7),3,5,11(22),12-pentaene-8,10,10-trione] | < 1000 nM | +++ (+++ is >60%) | ring closure, yield after HPLC ([1]; from CC1(C)CC(CCCn2ccc(S(=O)(=O)NC(=O)c3ccc(-n4ccc(OCCCC5(C(F)(F)F)CC5)n4)nc3Cl)n2)CN1, 14-membered ring, K2CO3/CsF/3A MS, DMSO, 49.7 mM, 140.0 °C, 16.0 h, 2 steps): 51%
CC1(C)CC2CCCNc3cc(ccn3)S(=O)(=O)NC(=O)c3ccc(-n4ccc(OCCC5(C(F)(F)F)CC5)n4)nc3N1C2 (stereo not drawn) [Compound 93, 12,12-dimethyl-8-(3-{2-[1-(trifluoromethyl)cyclopropyl]ethoxy}-1H-pyrazol-1-yl)-2λ^6-thia-3,9,11,18,20-pentaazatetracyclo[17.3.1.111,14.05,10]tetracosa-1(22),5,7,9,19(23),20-hexaene-2,2,4-trione] | < 1000 nM | +++ (+++ is >60%) | ring closure, yield after HPLC ([1]; from CC(C)(C)OC(=O)N1CC(CCCNc2cc(S(=O)(=O)NC(=O)c3ccc(-n4ccc(OCCC5(C(F)(F)F)CC5)n4)nc3Cl)ccn2)CC1(C)C, 15-membered ring, TFA (Boc off), CsF/K2CO3/3A MS, DMSO, 26.0 mM, 130.0 °C, 2 steps): 30%
CC1(C)C[C@@H]2CCCNc3cccc(n3)S(=O)(=O)NC(=O)c3ccc(-n4ccc(OCCC(C5CCC5)C5CCC5)n4)nc3N1C2 [Compound 231, (14S)-8-[3-(3,3-dicyclobutylpropoxy)-1H-pyrazol-1-yl]-12,12-dimethyl-2λ^6-thia-3,9,11,18,23-pentaazatetracyclo[17.3.1.111,14.05,10]tetracosa-1(22),5,7,9,19(23),20-hexaene-2,2,4-trione] | < 1000 nM | +++ (+++ is >60%) | ring closure, yield after HPLC ([1]; from CC1(C)C[C@H](CCCNc2cccc(S(=O)(=O)NC(=O)c3ccc(-n4ccc(OCCC(C5CCC5)C5CCC5)n4)nc3Cl)n2)CN1, 15-membered ring, K2CO3/CsF/3A MS, DMSO, 21.1 mM, 165.0 °C, 16.0 h): 32%
CC1(C)CC2CCn3ccc(n3)S(=O)(=O)NC(=O)c3ccc(-n4ccc(OCCCC5(C(F)(F)F)CC5)n4)nc3N1C2 (stereo not drawn) [Compound 273, 19,19-Dimethyl-4-(3-{3-[1-(trifluoromethyl)cyclopropyl]propoxy}-1H-pyrazol-1-yl)-10λ^6-thia-1,3,9,14,21-pentaazatetracyclo[15.2.1.111,14.02,7]henicosa-2,4,6,11(21),12-pentaene-8,10,10-trione] | < 1000 nM | + (+ is <30%) | ring closure, yield after HPLC ([1]; from CC1(C)CC(CCn2ccc(S(=O)(=O)NC(=O)c3ccc(-n4ccc(OCCCC5(C(F)(F)F)CC5)n4)nc3Cl)n2)CN1, 13-membered ring, K2CO3/CsF/3A MS, DMSO, 25.5 mM, 150.0 °C): 11%
